Values of other authors in patent US20020066702A1, “Antibacterial and antibiofilm bonded permanent magnets” (priority 2000, published 2002).

How the values were obtained:
[1] = system: full thickness dermal wounds on the backs of rats; settings: eight days after initial irrigation with 1% povidone-iodine or 0.5% sodium hypochlorite
human fibroblast = settings: 24 hours after a 15 minute exposure to 1% povidone-iodine, 3% hydrogen peroxide or 0.5% sodium hypochlorite

For `OCl` [sodium hypochlorite], the re-epithelialization [1] is given as “substantially and statistically significantly inhibited” and the fibroblast survival (human fibroblast) is given as “no fibroblasts survived”.

In the case of “polyvinylpyrrolidone-iodine complex [povidone-iodine]”, the re-epithelialization [1] is listed as “substantially and statistically significantly inhibited” and the fibroblast survival (human fibroblast) is listed as “no fibroblasts survived”.

In the case of `OO` [hydrogen peroxide], the fibroblast survival (human fibroblast) is given as “no fibroblasts survived”.
